Drawing on ChEMBL document CHEMBL3046649, “Fungitoxic and Phytotoxic Activities of Cinnamic Acid Esters and Amides” (2000), this text covers inhibition of growth for 2 compounds.

In experiment [1] the test system is Brassica rapa subsp. chinensis. As to the kind of experiment: whole plant or invertebrate. Type of experiment: functional. The settings on record: 72 h, read-out: GI.
Description: Phytotoxicity against Brassica rapa subsp. chinensis assessed as growth inhibition of radicle at 100 ppm treated to seeds after 3 days
For experiment [2], the system named is Pythium. Description: microbe, parasite or virus in culture. Type of experiment: functional. The settings on record: read-out: GI.
Description: Fungitoxic activity against Pythium sp. assessed as mycelial growth inhibition at 100 ppm after 4 to 5 days by agar dilution method
In experiment [3] the test system is Brassica rapa subsp. chinensis. Description: whole plant or invertebrate. Type of experiment: functional. The settings on record: 72 h, read-out: GI. This is another data set of the same source.
Description: Phytotoxicity against Brassica rapa subsp. chinensis assessed as growth inhibition of hypocotyl at 100 ppm treated to seeds after 3 days
For experiment [4], the system named is Athelia rolfsii. Description: Fungitoxic activity against Athelia rolfsii assessed as mycelial growth inhibition at 10 ppm after 4 to 5 days by agar dilution method. Type of experiment: functional. The note with it: Agroathelia rolfsii; read-out: GI.
In experiment [5] the test system is Athelia rolfsii. Description: microbe, parasite or virus in culture. Type of experiment: functional. The note with it: Agroathelia rolfsii, read-out: GI.
Description: Fungitoxic activity against Athelia rolfsii assessed as mycelial growth inhibition at 100 ppm after 4 to 5 days by agar dilution method
The test system of experiment [6] is Pythium. As to the kind of experiment: Fungitoxic activity against Pythium sp. assessed as mycelial growth inhibition at 10 ppm after 4 to 5 days by agar dilution method. The settings on record: read-out: GI. (In general: Agar dilution tests growth on a series of plates holding different concentrations.)

Molecules are shown by their SMILES.

For the compound `CC(C)=CCC/C(C)=C/COC(=O)/C=C/c1ccc(C(C)C)cc1`, the inhibition of growth at 100 ppm in experiment [1] is 0%; in the experiment on Pythium [2], 72%; in experiment [3], 30%; with Athelia rolfsii [5], 88%. Besides, the inhibition of growth at 10 ppm is 21% with Athelia rolfsii [4] and 8% with Pythium [6].
Turning to `C=CCc1ccc(OC(=O)/C=C/c2ccc(Cl)cc2)c(OC)c1` [4-ALLYL-2-METHOXYPHENYL 3-(4-CHLOROPHENYL)ACRYLATE], the inhibition of growth at 100 ppm in experiment [1] came out at 49%; in the experiment with Pythium [2], 89%; in experiment [3] it was 38%; with Athelia rolfsii [5] it was 89%. For the same compound, the inhibition of growth at 10 ppm stood at 14% in the experiment with Athelia rolfsii [4] and 8% in the experiment with Pythium [6].
